From patent US9512120B2, “Microbicidally active imidazopyridine derivatives” (Syngenta Participations AG, priority 2013, dated 2016)

What was measured:
[1] = tested on: Thanatephorus cucumeris (Rhizoctonia solani); experiment: Thanatephorus cucumeris (Rhizoctonia solani) / liquid culture (foot rot, damping-off); assay type: cell-based; conditions: PDB, 24° C., 3-4 days after application, read-out: control of Thanatephorus cucumeris (inhibition of growth, photometric)
Experimental: Thanatephorus cucumeris (Rhizoctonia solani)/Liquid Culture (Foot Rot, Damping-Off): Mycelia fragments of a newly grown liquid culture of the fungus are directly mixed into nutrient broth (PDB potato dextrose broth). After placing a DMSO solution of the test compounds into a 96-well microtiter plate at an application rate of 200 ppm, the nutrient broth containing the fungal material was added. The test plates were incubated at 24° C. and the inhibition of growth was determined photometrically 3-4 days after application.

[2] = tested on: Botryotinia fuckeliana (Botrytis cinerea); experiment: Botryotinia fuckeliana (Botrytis cinerea) / liquid culture (gray mould); assay type: cell-based; conditions: Vogels broth, 24° C., 3-4 days after application, read-out: control of Botryotinia fuckeliana (inhibition of growth, photometric)
Experimental: (§1) Botryotinia Fuckeliana (Botrytis cinerea)/Liquid Culture (Gray Mould): Conidia of the fungus from cryogenic storage were directly mixed into nutrient broth (Vogels broth). After placing a DMSO solution of test compound into a 96-well microtiter plate at an application rate of 200 ppm, the nutrient broth containing the fungal spores was added. The test plates were incubated at 24° C. and the inhibition of growth was determined photometrically 3-4 days after application.

Pyrenophora teres = Pyrenophora teres / barley / leaf disc preventative (net blotch); assay type: in vivo; conditions: foliar, barley leaf segments cv Hasso, inoculated two days after application, assessed 5-7 days after application, read-out: control of Pyrenophora teres (disease control compared to untreated)
Experimental: Pyrenophora Teres/Barley/Leaf Disc Preventative (Net Blotch): Barley leaf segments cv Hasso are placed on agar in a 24-well plate and sprayed with formulated test compound diluted in water at an application rate of 200 ppm. The leaf segments are inoculated with a spore suspension of the fungus two days after application of the test solution. The inoculated leaf segments are incubated at 20° C. and 65% relative humidity under a light regime of 12/12 h (light/dark) in a climate cabinet and the activity of a compound is assessed as disease control compared to untreated when an appropriate level of disease damage appears in untreated check leaf segments (5-7 days after application).

[3] = tested on: Mycosphaerella graminicola (Septoria tritici); experiment: Mycosphaerella graminicola (Septoria tritici) / liquid culture (Septoria blotch); assay type: cell-based; conditions: Zymoseptoria tritici, PDB, 24° C., 4-5 days after application, read-out: control of Mycosphaerella graminicola (inhibition of growth, photometric)
Experimental: as §1, with “Mycosphaerella graminicola (Septoria tritici)/Liquid” for “Botryotinia Fuckeliana (Botrytis cinerea)/Liquid”, “(Septoria Blotch):” for “(Gray Mould):”, “(PDB potato dextrose” for “(Vogels”, “4-5” for “3-4”

[4] = tested on: Puccinia recondita f. sp. Tritici; experiment: Puccinia recondita f. sp. tritici / wheat / leaf disc preventative (brown rust); assay type: in vivo; conditions: foliar, wheat leaf segments cv Kanzler, inoculated 1 day after application, assessed 7-9 days after application, read-out: control of Puccinia recondita f. sp. Tritici (percent disease control compared to untreated)
Experimental: Puccinia recondita f. Sp. Tritici/Wheat/Leaf Disc Preventative (Brown Rust): Wheat leaf segments cultivated variety (cv) Kanzler were placed on agar in 24-well plates and sprayed with formulated test compound diluted in water at an application rate of 200 ppm. The leaf disks were inoculated with a spore suspension of the fungus 1 day after application. The inoculated leaf segments were incubated at 19° C. and 75% relative humidity under a light regime of 12/12 h (light/dark) in a climate cabinet and the activity of a compound was assessed as percent disease control compared to untreated when an appropriate level of disease damage appears in untreated check leaf segments (7-9 days after application).

| SMILES | inhibition at 20 ppm [1] | inhibition at 20 ppm [2] | pest or weed control at 200 ppm (Pyrenophora teres) | inhibition at 20 ppm [3] | pest or weed control at 200 ppm [4] |
| --- | --- | --- | --- | --- | --- |
| CCn1c(-n2ncnc2N)nc2cncc(-c3cccc(C(F)(F)F)c3)c21 [Compound 31, 2-[1-ethyl-7-[3-(trifluoromethyl)phenyl]imidazo[4,5-c]pyridin-2-yl]-1,2,4-triazol-3-amine] | ≥ 80% | ≥ 80% | ≥ 80% | – | – |
| CCn1c(-n2ncnc2N)nc2cncc(-c3ccccc3C(F)(F)F)c21 [Compound 32, 2-[1-ethyl-7-[2-(trifluoromethyl)phenyl]imidazo[4,5-c]pyridin-2-yl]-1,2,4-triazol-3-amine] | ≥ 80% | – | ≥ 80% | – | – |
| CCn1c(-n2ncnc2N)nc2cncc(-c3cccc(Cl)c3)c21 [Compound 34, 2-[7-(3-chlorophenyl)-1-ethylimidazo[4,5-c]pyridin-2-yl]-1,2,4-triazol-3-amine] | ≥ 80% | ≥ 80% | ≥ 80% | ≥ 80% | – |
| CCn1c(-n2ncnc2N)nc2cncc(-c3ccc(Cl)c(Cl)c3)c21 [Compound 36, 2-[7-(3,4-dichlorophenyl)-1-ethylimidazo[4,5-c]pyridin-2-yl]-1,2,4-triazol-3-amine] | ≥ 80% | – | ≥ 80% | ≥ 80% | ≥ 80% |
| CCn1c(-n2ncnc2N)nc2cncc(-c3ccc(OC)c(F)c3)c21 [Compound 43, 2-[1-ethyl-7-(3-fluoro-4-methoxyphenyl)imidazo[4,5-c]pyridin-2-yl]-1,2,4-triazol-3-amine] | ≥ 80% | ≥ 80% | ≥ 80% | ≥ 80% | – |
| CCn1c(-n2ncnc2N)nc2cncc(-c3ccc(C)c([N+](=O)[O-])c3)c21 [Compound 44, 2-[1-ethyl-7-(4-methyl-3-nitrophenyl)imidazo[4,5-c]pyridin-2-yl]-1,2,4-triazol-3-amine] | ≥ 80% | – | – | – | – |
| CCn1c(-n2ncnc2N)nc2cncc(-c3ccc(C)c(C)c3)c21 [Compound 46, 2-[7-(3,4-dimethylphenyl)-1-ethylimidazo[4,5-c]pyridin-2-yl]-1,2,4-triazol-3-amine] | ≥ 80% | ≥ 80% | – | ≥ 80% | – |
| CCn1c(-n2ncnc2N)nc2cncc(-c3cc(C)c(OC)c(C)c3)c21 [Compound 47, 2-[1-ethyl-7-(4-methoxy-3,5-dimethylphenyl)imidazo[4,5-c]pyridin-2-yl]-1,2,4-triazol-3-amine] | ≥ 80% | – | ≥ 80% | – | ≥ 80% |
| CCn1c(-n2ncnc2N)nc2cncc(-c3ccc(Cl)c(C(F)(F)F)c3)c21 [Compound 49] | ≥ 80% | ≥ 80% | ≥ 80% | ≥ 80% | – |
| CCn1c(-n2ncnc2N)nc2cncc(-c3cc4ccccc4o3)c21 [Compound 51, 2-[7-(1-benzofuran-2-yl)-1-ethylimidazo[4,5-c]pyridin-2-yl]-1,2,4-triazol-3-amine] | ≥ 80% | – | ≥ 80% | – | – |
| CCn1c(-n2ncnc2N)nc2cncc(-c3cc(C)sc3C)c21 [Compound 52, 2-[7-(2,5-dimethylthiophen-3-yl)-1-ethylimidazo[4,5-c]pyridin-2-yl]-1,2,4-triazol-3-amine] | ≥ 80% | ≥ 80% | – | ≥ 80% | – |
| CCn1c(-n2ncnc2N)nc2cncc(-c3ccc(-c4ccc(F)cc4)nc3)c21 [Compound 54, 2-[1-ethyl-7-[6-(4-fluorophenyl)pyridin-3-yl]imidazo[4,5-c]pyridin-2-yl]-1,2,4-triazol-3-amine] | ≥ 80% | ≥ 80% | – | ≥ 80% | ≥ 80% |
| CCn1c(-n2ncnc2N)nc2cncc(-c3cccnc3OC)c21 [Compound 58, 2-[1-ethyl-7-(2-methoxypyridin-3-yl)imidazo[4,5-c]pyridin-2-yl]-1,2,4-triazol-3-amine] | ≥ 80% | – | ≥ 80% | – | – |
| CCn1c(-n2ncnc2N)nc2cncc(-c3ccc(C(F)(F)F)nc3)c21 [Compound 63, 2-[1-ethyl-7-[6-(trifluoromethyl)pyridin-3-yl]imidazo[4,5-c]pyridin-2-yl]-1,2,4-triazol-3-amine] | ≥ 80% | – | ≥ 80% | – | – |
| CCn1c(-n2ncnc2N)nc2cncc(-c3cnc(Cl)c(C)c3)c21 [Compound 65, 2-[7-(6-chloro-5-methylpyridin-3-yl)-1-ethylimidazo[4,5-c]pyridin-2-yl]-1,2,4-triazol-3-amine] | ≥ 80% | – | ≥ 80% | – | – |
| CCn1c(-n2ncnc2N)nc2cncc(C=CC3CCCCC3)c21 [Compound 70, 2-[7-(2-cyclohexylethenyl)-1-ethylimidazo[4,5-c]pyridin-2-yl]-1,2,4-triazol-3-amine] | – | – | ≥ 80% | ≥ 80% | – |
| CCn1c(-n2ncnc2N)nc2cncc(C=Cc3ccc(C)cc3)c21 [Compound 71, 2-[1-ethyl-7-[2-(4-methylphenyl)ethenyl]imidazo[4,5-c]pyridin-2-yl]-1,2,4-triazol-3-amine] | ≥ 80% | – | – | – | – |
| CCn1c(-n2ncnc2N2C(=O)CCC2=O)nc2cncc(C(C)=O)c21 [Compound 113, 1-[2-(7-acetyl-1-ethylimidazo[4,5-c]pyridin-2-yl)-1,2,4-triazol-3-yl]pyrrolidine-2,5-dione] | – | – | ≥ 80% | – | – |
| CCn1c(-n2ncnc2N2C(=O)CCC2=O)nc2cncc(-c3ccc(Cl)cc3Cl)c21 [Compound 114] | – | – | ≥ 80% | – | – |
| Nc1ncnn1-c1nc2cncc(-c3ccc(Cl)cc3Cl)c2n1C1CC1 [Compound 119, 2-[1-cyclopropyl-7-(2,4-dichlorophenyl)imidazo[4,5-c]pyridin-2-yl]-1,2,4-triazol-3-amine] | ≥ 80% | – | ≥ 80% | ≥ 80% | – |
| Nc1ncnn1-c1nc2cncc(-c3ccccc3Cl)c2n1C1CC1 [Compound 125, 2-[7-(2-chlorophenyl)-1-cyclopropylimidazo[4,5-c]pyridin-2-yl]-1,2,4-triazol-3-amine] | ≥ 80% | – | – | – | – |
| Nc1ncnn1-c1nc2cncc(-c3ccccc3Cl)c2n1C1CCCCC1 [Compound 126, 2-[7-(2-chlorophenyl)-1-cyclohexylimidazo[4,5-c]pyridin-2-yl]-1,2,4-triazol-3-amine] | – | ≥ 80% | – | – | – |
| CCOC(=O)C(C)O/N=C(\C)c1cncc2nc(-n3ncnc3N)n(CC)c12 (stereo not drawn) [Compound 159] | ≥ 80% | – | – | – | – |
| CCn1c(-n2ncnc2N)nc2cncc(/C(C)=N/OCC(C)C)c21 [Compound 162] | ≥ 80% | – | – | ≥ 80% | ≥ 80% |
| CCn1c(-n2ncnc2N)nc2cncc(C(C)=NOCc3cc(Cl)c(Cl)cc3Cl)c21 [Compound 164] | ≥ 80% | – | ≥ 80% | ≥ 80% | – |
| CCn1c(-n2ncnc2N)nc2cncc(/C(C)=N/OC(C)C)c21 [Compound 167] | ≥ 80% | – | ≥ 80% | ≥ 80% | ≥ 80% |
| CCn1c(-n2ncnc2N)nc2cncc(C(C)=NOc3ccccc3)c21 [Compound 168] | ≥ 80% | – | ≥ 80% | ≥ 80% | ≥ 80% |
| Cc1cncc2nc(-n3ncnc3N)n(C3CC3)c12 [Compound 175, 2-(1-cyclopropyl-7-methyl-imidazo[4,5-c]pyridin-2-yl)-1,2,4-triazol-3-amine] | – | – | ≥ 80% | – | – |
| C=C(C)CO/N=C(\C)c1cncc2nc(-n3ncnc3N)n(CC)c12 [Compound 179] | ≥ 80% | ≥ 80% | – | ≥ 80% | – |
